Columns and labels:
Priestia megaterium [1] = assay: Activity of Bacillus megaterium CYP450 D6H10 mutant assessed as conversion of propranolol to 5-hydroxypropranolol at 5 mM in presence of 1 mM H2O2 and 4 mM ascorbic acid
[2] = target: T1, Aromatic peroxygenase (Cyclocybe aegerita) (UniProt B9W4V6); assay: Activity of Agrocybe aegerita peroxygenase assessed as conversion of propranolol to 5-hydroxypropranolol at 5 mM in presence of 5 mM H2O2 and 4 mM ascorbic acid
T1 sequence (whole entry): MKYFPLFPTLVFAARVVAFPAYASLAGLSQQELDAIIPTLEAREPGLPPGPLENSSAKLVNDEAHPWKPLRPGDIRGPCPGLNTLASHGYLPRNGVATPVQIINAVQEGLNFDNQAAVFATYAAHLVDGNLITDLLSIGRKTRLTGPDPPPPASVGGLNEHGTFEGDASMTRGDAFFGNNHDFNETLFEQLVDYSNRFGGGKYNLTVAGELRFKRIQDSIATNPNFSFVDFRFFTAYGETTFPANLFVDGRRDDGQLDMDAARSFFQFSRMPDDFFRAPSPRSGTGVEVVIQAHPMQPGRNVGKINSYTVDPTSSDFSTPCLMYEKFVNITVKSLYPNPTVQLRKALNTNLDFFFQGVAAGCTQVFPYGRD

[3] = target: T1, Aromatic peroxygenase (Cyclocybe aegerita); assay: Activity of Agrocybe aegerita peroxygenase assessed as conversion of diclofenac to 4'-hydroxydiclofenac at 5 mM in presence of 5 mM H2O2 and 4 mM ascorbic acid
Priestia megaterium [4] = assay: Activity of Bacillus megaterium CYP450 D6H10 mutant assessed as conversion of diclofenac to 4'-hydroxydiclofenac at 5 mM in presence of 1 mM H2O2 and 4 mM ascorbic acid

Structure (SMILES)	Activity (Priestia megaterium [1])	Activity [2]	Activity [3]	Activity (Priestia megaterium [4])
CC(C)NCC(O)COc1cccc2ccccc12 (centres undefined)	0.5%	13.6%	–	–
O=C(O)Cc1ccccc1Nc1c(Cl)cccc1Cl	–	–	30%	30%
